We go through five compounds from patent publication US12534583B2, “Compositions and polymer films” (Fujifilm Manufacturing Europe B.V., priority 2020, dated 2026).

Structures are written as SMILES. Structures can show the parent of a compound that is named as a salt.

This data set in a line: Solubility in water determined visually or by UV-spectrometry. The following applies: 40° C. overnight, M = Li.
Protocol: The solubility of the compounds of Formula (I) was determined visually or by UV-spectrometry. For each compound of Formula (I), three solutions were prepared: one solution at 30 wt %, one solution at 60 wt %, and one solution at 70 wt % containing a 1:1 molar ratio of the compound of Formula (I) with cross-linker Li-BVBSI. 500 ppm 40H-TEMPO was included in all three solutions to prevent premature polymerisation. The solutions were kept in a water bath of 40° C. overnight and centrifuged prior inspection. UV spectra were recorded in a Cary™ 100 UV-visible spectrophotometer from Agilent Technologies using a 1 mm path length quartz cuvette.
Consider `C=Cc1ccc(S(=O)(=O)NS(=O)(=O)C(F)(F)F)cc1` [MM-Tf, Benzenesulphonamide, 4-ethenyl-N-[(trifluoromethyl)sulphonyl]-, lithium salt, reference compound], for which the “Solubility in water at 40° C.” value is reported as greater than 60 wt %. The result for `C=Cc1ccc(S(=O)(=O)NS(=O)(=O)c2ccccc2)cc1` [MM-P, Benzenesulphonamide, 4-ethenyl-N-(phenylsulphonyl)-, lithium salt] reads greater than 60 wt %; that for `C=Cc1ccc(S(=O)(=O)[O-])cc1.[Li+]` [LiSS, Styrene sulphonate, lithium salt, reference compound], 40 wt %. On to `C=Cc1ccc(S(=O)(=O)NS(N)(=O)=O)cc1` [MM-A, Benzenesulphonamide, 4-ethenyl-N-(aminosulphonyl)-, lithium salt], for which the “Solubility in water at 40° C.” value is recorded as greater than 60 wt %. The value for `C=Cc1ccc(S(=O)(=O)NS(C)(=O)=O)cc1` [MM-M, Benzenesulphonamide, 4-ethenyl-N-(methylsulphonyl)-, lithium salt] was greater than 60 wt %.
